From PubChem BioAssay AID2060621 (Molecular Pharmacology Branch, DTP, NCI, 2025) come the findings set out here.

In general, viability, T/C refers to the ratio of treated to control. The term IC50 denotes the concentration that inhibits the measured activity by half.

For this assay, the system named is 324938-238-R-J1-PDC complex spheroids viability. Nature of the assay: Anticancer human tumor 324938-238-R-J1-PDC patient-derived bladder carcinoma cell line growth inhibition [CLK]. The note with it: for viability, T/C: stronger effect = lower value. From the text:
A high-throughput screen of multi-cell type tumor spheroids was designed to identify active combinations of […] and targeted small molecules. Complex spheroids include a stromal component modeled by human endothelial cells (HUVEC) and fibroblasts modeled by human mesenchymal stem cells (MSCs). The concentration ranges selected for each drug and investigational agent were based upon clinically achievable concentrations if the clinical Cmax of the agent was known.
Compounds. The drugs and investigational agents: cirtuvivint (SM08502; NSC835563), CC-671 (NSC850746), vemurafenib (NSC761431), tapotoclax (NSC804041), sotorasib (NSC818433), adagrasib (NSC831453), MRTX-1133 (NSC836407), BAY2416964 (NSC825713), copanlisib (NSC816437), inavolisib (NSC800729), abemaciclib (NSC768073), osimertinib (NSC779217), entinostat (NSC756642), eltanexor (KPT-8602, NSC794443), venetoclax (NSC766270), ceralasertib (NSC777638), bortezomib (NSC756655), olaparib (NSC753686), talazoparib (NSC767125), alisertib (NSC759677), peposertib (NSC802822), gemcitabine (NSC613327), 5-fluorouracil (NSC19893), SN-38 (NSC673596), oxaliplatin (NSC266046), paclitaxel (NSC125973), and doxorubicin (NSC123127), were obtained from the National Cancer Institute (NCI) Developmental Therapeutics Program Chemical Repository. The FDA-approved anticancer drug set is available from the Developmental Therapeutics Program at https://dtp.cancer.gov/organization/dscb/obtaining/available plates.htm. […] The stock solutions were prepared in dimethyl sulfoxide (DMSO, Sigma-Aldrich, St. Louis, MO, cat. D2650), except for the platinum complexes which were prepared in saline (Quality Biological, Gaithersburg, MD, cat. 114-055-101), at 800-fold the tested concentration and stored at -70 degrees C prior to their use. All drugs and investigational agents were tested over a range starting from a high concentration at or near the clinical Cmax and decreasing in half-log increments. If the clinical Cmax for an agent had not been determined, the highest concentration tested was 10 microM.
Cell Culture. All cells were maintained in an incubator at 37 degrees C and 5% CO2 with 95% humidity. The PDC lines were cultured according to standard operating procedures established by the NCI PDMR. Briefly, all PDCs were thawed and cultured in Matrigel-coated flasks prepared with a working solution of 1X Ham's F-12 nutrient mix, without supplementation (Invitrogen, Waltham, MA, cat. 11765054), 100 U/mL penicillin-streptomycin (Invitrogen, cat. 15140122), and 2.5% Matrigel (Corning Inc., Corning, NY, cat. 354248) for the first three passages. The 947758-054-R-J2-PDC line was cultured in 6B/Colon 1A media, which includes advanced DMEM/F-12 (Thermo Fisher Scientific, cat. 12634028), 10 mM HEPES (Thermo Fisher Scientific, cat. 15630080), 1X GlutaMAX supplement (Thermo Fisher Scientific, cat. 35050061), 0.1 mg/mL primocin (InvivoGen, cat. ant-pm-2), 10% defined fetal bovine serum, heat inactivated (HyClone Laboratories Inc., cat. SH30070.03HI), 1.25 mM N-Acetyl-L-cysteine (Sigma-Aldrich, cat. A9165), 10 mM nicotinamide (Sigma-Aldrich, cat. N0636), 1X B-27 supplement (Thermo Fisher Scientific, cat. 17504044), 1X N-2 supplement (Thermo Fisher Scientific, cat. 17502048), and 10 microM Y-27632 dihydrochloride (Tocris Bioscience, cat. 1254). The 876862-298-R-J1-PDC was cultured in 6E media, which includes all 6B/Colon 1A media components plus 50% L-WRN conditioned media (ATCC, cat. CRL-3276), 50 ng/mL recombinant human EGF recombinant protein (hEGF; Thermo Fisher Scientific, cat. PHG0311), 10 ng/mL recombinant human fibroblast growth factor 10 (hGFG-10; PeproTech, cat. 100-26), 1 ng/mL recombinant human fibroblast growth factor 2 (hFGF-2; PeproTech, cat. 100-18B), and 1 µM prostaglandin E2 (PGE2; Tocris, cat. 2296). The 227483-062-R1-J1-PDC line was cultured in Panc media, containing all 6E components except hFGF-2, with the addition of 500 nM SB-431542 (Selleckchem, cat. S1067) and 10 nM gastrin (Tocris, cat. 3006). […]

“And” between values parts separate entries of the source, which are not always exact repeats. Identical values can stand only once.
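Note: viability read after seven days of drug exposure.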
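Throughout, for viability, T/C: 100% = DMSO vehicle control wells.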

In the case of `C#Cc1c(F)ccc2cc(O)cc(-c3ncc4c(N5CC6CCC(C5)N6)nc(OCC56CCCN5CC(F)C6)nc4c3F)c12` (configuration not stated), the viability, T/C (compound 0.0316 µM) is 80% and 86.4%; the viability, T/C (compound 0.1 µM) was 69.2% and 79.7%; the viability, T/C (compound 0.316 µM) was 56.7% and 70%; the viability, T/C (compound 1 µM) is 64.9% and 53.9%; the viability, T/C (compound 3.16 µM) was 48.4% and 41.9%; the viability, T/C (compound 10 µM) is 41.9% and 38%. For the same compound, the IC50 (curve of compound) was 2.92 µM and 1.47 µM.

As for `C=C(F)C(=O)N1CCN(c2nc(OCC3CCCN3C)nc3c2CCN(c2cccc4cccc(Cl)c24)C3)CC1CC#N` (configuration not stated), the viability, T/C (compound 0.0316 µM) was 79.2% and 88%; the viability, T/C (compound 0.1 µM) was 88.8% and 85.7%; the viability, T/C (compound 0.316 µM) was 89.3% and 88%; the viability, T/C (compound 1 µM) is 85.3% and 92.6%; the viability, T/C (compound 3.16 µM) is 35.5% and 55.8%; the viability, T/C (compound 10 µM) is 0.27% and 1.96%. Further, the 50% inhibitory concentration (IC50) (curve of compound) was 2.26 µM and 3.58 µM.

With `C=CC(=O)N1CCN(c2nc(=O)n(-c3c(C)ccnc3C(C)C)c3nc(-c4c(O)cccc4F)c(F)cc23)C(C)C1` (configuration not stated), the viability, T/C runs as follows: (compound 0.0316 µM) 79.1% and 96.4%; (compound 0.1 µM) 91.3% and 85%; (compound 0.316 µM) 85.2% and 93.5%; (compound 1 µM) 102% and 99.9%; (compound 3.16 µM) 105% and 99.1%; (compound 10 µM) 87.9% and 86.4%. Where the note is “curve of compound”, the IC50 is over 10 µM.

For the compound `C=CC(=O)Nc1cc(Nc2nccc(-c3cn(C)c4ccccc34)n2)c(OC)cc1N(C)CCN(C)C`, the viability, T/C reads like this: (compound 0.000949 µM) 71.7% and 84%; (compound 0.003 µM) 79.8% and 82.5%; (compound 0.00949 µM) 62.2% and 65.2%; (compound 0.03 µM) 69.3% and 61.8%; (compound 0.0949 µM) 36.1% and 45.5%; (compound 0.3 µM) 22.2% and 22.7%. Besides, the IC50 (curve of compound) is 0.0583 µM and 0.0618 µM.

As for `CC(C)CC(NC(=O)C(Cc1ccccc1)NC(=O)c1cnccn1)B(O)O` (configuration not stated), the viability, T/C (compound 0.000949 µM) is 63.7% and 55.5%; the viability, T/C (compound 0.003 µM) was 2.77% and 1.54%; the viability, T/C (compound 0.00949 µM) is 0.22% and 0.18%; the viability, T/C (compound 0.03 µM) is 0.44% and 0.2%; the viability, T/C (compound 0.0949 µM) is 0.18% and 0.12%; the viability, T/C (compound 0.3 µM) was 0.35% and 0.13%. Moreover, under “curve of compound”, the IC50 was 0.00123 µM and 0.00107 µM.

As for `CC(CO)NC(=O)c1cc(-c2ccc(Cl)cc2)nn(-c2cnn(C)c2)c1=O` (configuration not stated), the viability, T/C is 84.8% and 86.6% (compound 0.0316 µM); 92.3% and 81.3% (compound 0.1 µM); 71.5% and 73.9% (compound 0.316 µM); 78.2% and 76.1% (compound 1 µM); 60.9% and 59.9% (compound 3.16 µM); 47.1% and 42.9% (compound 10 µM). In addition, the IC50 (curve of compound) is 8.05 µM and 6.34 µM.

With `CC(Nc1ccc2c(c1)OCCn1cc(N3C(=O)OCC3C(F)F)nc1-2)C(N)=O` (configuration not stated), the viability, T/C was 67.9% and 69% (compound 0.0316 µM); 49.2% and 55% (compound 0.1 µM); 32% and 34.8% (compound 0.316 µM); 25% and 29.9% (compound 1 µM); 20.4% and 24.6% (compound 3.16 µM); 10.8% and 12.4% (compound 10 µM). Besides, for the setting “curve of compound”, the IC50 was 0.091 µM and 0.128 µM.

`CCCS(=O)(=O)Nc1ccc(F)c(C(=O)c2c[nH]c3ncc(-c4ccc(Cl)cc4)cc23)c1F`: the viability, T/C was 80.8% and 83% (compound 0.0316 µM); 96.9% and 88.4% (compound 0.1 µM); 102% and 90.1% (compound 0.316 µM); 115% and 101% (compound 1 µM); 111% and 94.9% (compound 3.16 µM); 55% and 44.1% (compound 10 µM). In addition, where the note is “curve of compound”, the 50% inhibitory concentration (IC50) was > 10 µM and 8.67 µM.

Regarding `CCN1CCN(Cc2ccc(Nc3ncc(F)c(-c4cc(F)c5nc(C)n(C(C)C)c5c4)n3)nc2)CC1`, the viability, T/C was 74.7% and 81.3% (compound 0.00316 µM); 69.6% and 74.1% (compound 0.01 µM); 60% and 54.8% (compound 0.0316 µM); 41.8% and 48.6% (compound 0.1 µM); 37% and 36.6% (compound 0.316 µM); 36.5% and 46.5% (compound 1 µM). Moreover, for the setting “curve of compound”, the IC50 was 0.0594 µM and 0.0602 µM.

Turning to `CCc1c2c(nc3ccc(O)cc13)-c1cc3c(c(=O)n1C2)COC(=O)[C@]3(O)CC`, the viability, T/C is 14.5% and 16.4% (compound 0.00316 µM); 10.3% and 12.2% (compound 0.01 µM); 10.7% and 11.6% (compound 0.0316 µM); 10.8% and 13.9% (compound 0.1 µM); 7.67% and 11.4% (compound 0.316 µM); 2.3% and 1.78% (compound 1 µM). Besides, the IC50 (curve of compound) is under 0.00316 µM.

For the compound `CN1CCN(c2cc(C(=O)Nc3cc4cc(-c5cnn(C)c5)ccc4cn3)ccn2)CC1`, the viability, T/C by setting is: (compound 0.0316 µM) 80.8% [middle of 12 runs]; (compound 0.1 µM) 54.8% [middle of 12 runs]; (compound 0.316 µM) 22.3% [middle of 12 runs]; (compound 1 µM) 1.3% [middle of 12 runs]; (compound 3.16 µM) 0.22% [middle of 5 runs]; (compound 10 µM) 0.22% [middle of 10 runs]. The half-maximal inhibitory concentration (IC50) (compound alone, run of 08/14/2023) is 116 nM [middle of 10 runs].

Regarding `CNC(=O)c1ccc(Nc2nc(OC3CCCC3)c3c(-c4ccc5nc(C)oc5c4)c[nH]c3n2)c(OC)c1`, the viability, T/C is 86% [middle of 12 runs] (compound 0.0316 µM); 28.1% [middle of 12 runs] (compound 0.1 µM); 18.9% [middle of 12 runs] (compound 0.316 µM); 15.9% [middle of 12 runs] (compound 1 µM); 16.8% [middle of 12 runs] (compound 3.16 µM); 17.5% [middle of 12 runs] (compound 10 µM). In addition, the concentration for half-maximal inhibition (IC50) (compound alone, run of 08/15/2023) was 62.5 nM [middle of 11 runs].

Consider `COC1C=CCC(C)C(C)S(=O)(=O)NC(=O)c2ccc3c(c2)N(CC2CCC21)CC1(CCCc2cc(Cl)ccc21)CO3` (configuration not stated), for which the viability, T/C by setting is: (compound 0.0316 µM) 73.8% and 71.3%; (compound 0.1 µM) 78.3% and 65.3%; (compound 0.316 µM) 39.4% and 28.4%; (compound 1 µM) 21% and 21.4%; (compound 3.16 µM) 17.9% and 14.6%; (compound 10 µM) 10.5% and 7.78%. Moreover, under “curve of compound”, the IC50 was 0.227 µM and 0.16 µM.

In the case of `COc1c(OCCCN2CCOCC2)ccc2c3n(c(=NC(=O)c4cnc(N)nc4)nc12)CCN3`, the viability, T/C is 64.9% and 69.6% (compound 0.00316 µM); 49.7% and 52.5% (compound 0.01 µM); 30.7% and 33.4% (compound 0.0316 µM); 15.3% and 19% (compound 0.1 µM); 4.22% and 7.44% (compound 0.316 µM); 0.44% and 1.03% (compound 1 µM). Also, under “curve of compound”, the IC50 is 0.00979 µM and 0.0115 µM.

As for `Cn1ncnc1[C@H]1c2n[nH]c(=O)c3cc(F)cc(c23)N[C@@H]1c1ccc(F)cc1`, the viability, T/C by setting is: (compound 0.000316 µM) 84.5% and 92.7%; (compound 0.001 µM) 78.8% and 76.2%; (compound 0.00316 µM) 60% and 68.3%; (compound 0.01 µM) 50% and 55.5%; (compound 0.0316 µM) 37.4% and 33.3%; (compound 0.1 µM) 28.4% and 24.7%. Besides, the concentration for half-maximal inhibition (IC50) (curve of compound) was 0.00912 µM and 0.0118 µM.

In the case of `NC(=O)C(=Cn1cnc(-c2cc(C(F)(F)F)cc(C(F)(F)F)c2)n1)c1cncnc1`, the viability, T/C by setting is: (compound 0.00949 µM) 70.3% and 65.1%; (compound 0.03 µM) 56.4% and 61.5%; (compound 0.0949 µM) 37.4% and 29.3%; (compound 0.3 µM) 12.4% and 14%; (compound 0.949 µM) 5.43% and 5.85%; (compound 3 µM) 3.14% and 2.78%. Further, the IC50 (curve of compound) is 0.0455 µM and 0.0436 µM.
